PubChem BioAssay (NCI)
Where “and” joins values, the source holds several entries; their conditions need not be identical. Equal values may be shown once.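 A five-concentration, 48-hour dose response in 96-well plates underlies each endpoint, interpolated linearly between surrounding concentrations. GI50: concentration for 50% inhibition of growth. Definition used: TGI = concentration required for complete inhibition of growth.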

Experiments:
Assay in all cases: NCI anticancer screen, dose series, 48 h
HCC-2998 colon = system: HCC-2998 colon
HOP-92 NSCLC = system: HOP-92 NSCLC
HS 578T breast = system: HS 578T breast
HT29 colon = system: HT29 colon
LOX IMVI melanoma = system: LOX IMVI melanoma
MALME-3M melanoma = system: MALME-3M melanoma
NCI-H226 lung = system: NCI-H226 lung
NCI-H23 lung = system: NCI-H23 lung
U251 CNS = system: U251 CNS
M14 melanoma = system: M14 melanoma

SMILES	GI50 (HCC-2998 colon)	TGI (HCC-2998 colon)	GI50 (HOP-92 NSCLC)	TGI (HOP-92 NSCLC)	GI50 (HS 578T breast)	TGI (HS 578T breast)	GI50 (HT29 colon)	TGI (HT29 colon)	GI50 (LOX IMVI melanoma)	TGI (LOX IMVI melanoma)	GI50 (MALME-3M melanoma)	TGI (MALME-3M melanoma)	GI50 (NCI-H226 lung)	TGI (NCI-H226 lung)	GI50 (NCI-H23 lung)	TGI (NCI-H23 lung)	GI50 (U251 CNS)	TGI (U251 CNS)	GI50 (M14 melanoma)	TGI (M14 melanoma)
CCc1ccc2c(c1)N(CCO)C1=C(C(=O)OC1)C2c1cc(OC)c(OC)c(OC)c1 (stereo not drawn)	0.327 µM	> 10.3 µM	0.716 µM	> 50 µM	0.218 µM	> 50 µM	0.143 µM	0.447 µM	0.318 µM	> 50 µM	0.218 µM	> 50 µM	0.178 µM	2.44 µM	0.219 µM	> 14.4 µM	0.182 µM	> 50 µM	–	–
COc1ccc2c(c1OC)O/C(=C\c1ncc([N+](=O)[O-])n1C)C2=O	2.16 µM	4.73 µM	1.45 µM	4.86 µM	2.15 µM	> 22.8 µM	0.836 µM	5.02 µM	0.482 µM	2.04 µM	1.15 µM	3.53 µM	7.29 µM	50.8 µM	1.3 µM	5.6 µM	2.95 µM	13.9 µM	0.591 µM	2.52 µM
COc1cc(NC2CCCCC2O)c2nc(-c3ccc(Cl)cc3)ccc2c1 (stereo not drawn)	13.4 µM	> 100 µM	18.7 µM	88.3 µM	2.88 µM	13.2 µM	4.29 µM	23.8 µM	5.95 µM	30.9 µM	7.45 µM	28 µM	18.6 µM	> 100 µM	6.15 µM	61.7 µM	3.88 µM	> 100 µM	9.23 µM	33.9 µM
C#C[C@]1(O)CC[C@H]2[C@@H]3CC=C4c5nc(N)sc5CC[C@]4(C)[C@H]3CC[C@@]21C	4.21 µM	19.2 µM	3.7 µM	19.5 µM	2.55 µM	7.94 µM	3.04 µM	12.4 µM	1.92 µM	4.04 µM	2.83 µM	8.98 µM	2.76 µM	7.56 µM	4.38 µM	24.3 µM	2.47 µM	16.4 µM	2.75 µM	7.83 µM
CN(C)c1ccc(C(O)C2=CC(=O)c3ccccc3C2=O)cc1 (stereo not drawn)	17 µM	38.7 µM	1.56 µM	4.16 µM	0.509 µM	> 100 µM	–	–	–	–	24.2 µM	56.7 µM	3.01 µM	14.2 µM	27.2 µM	97.5 µM	1.74 µM	> 100 µM	15.4 µM	29.4 µM
CC(=O)Oc1cc2cnc3c4cc(OC(C)=O)c(OC(C)=O)cc4ccc3c2cc1OC(C)=O	3.74 µM	> 100 µM	0.538 µM	37.9 µM	1.01 µM	9.56 µM	4.18 µM	> 100 µM	1.23 µM	> 100 µM	1.55 µM	9.33 µM	2.04 µM	8.91 µM	2.54 µM	> 100 µM	0.548 µM	10.6 µM	1.78 µM	> 100 µM
O=C(O)CCCCC1CCSS1 (stereo not drawn)	–	> 100 µM	–	> 100 µM	–	> 100 µM	–	> 100 µM	–	> 100 µM	–	> 100 µM	–	> 100 µM	–	> 100 µM	–	> 100 µM	–	> 100 µM
CCn1c(-c2nonc2N)nc2cnc(Oc3cccc(NC(=O)c4ccc(N(C)C)cc4)c3)cc21	> 25 µM	> 25 µM	0.00447 µM	> 25 µM	0.0623 µM	> 25 µM	> 25 µM	> 25 µM	> 25 µM	> 25 µM	> 25 µM	> 25 µM	> 25 µM	> 25 µM	> 25 µM	> 25 µM	> 25 µM	> 25 µM	> 25 µM	> 25 µM
CS(=O)(=O)Nc1cc(-c2ccc3ncnc(Nc4cccc(Cl)c4)c3c2)cnc1Cl	0.246 µM	1.79 µM	0.122 µM	0.96 µM	0.088 µM	0.782 µM	0.319 µM	5.84 µM	0.33 µM	2.19 µM	0.0985 µM	0.82 µM	1.1 µM	7.62 µM	0.328 µM	10.6 µM	0.503 µM	2.68 µM	0.542 µM	10.6 µM
CC1(C)N=C(N)N=C(N)N1c1cccc(CCc2ccccc2)c1	1.69 µM	> 38.7 µM	2.65 µM	34.4 µM	22.4 µM	> 100 µM	0.135 µM	18.6 µM	0.269 µM	> 100 µM	1.04 µM	> 68.8 µM	3.42 µM	> 100 µM	0.551 µM	> 100 µM	0.113 µM	> 100 µM	1.29 µM	> 100 µM
COc1cccc(-c2nc3sccn3c2-c2ccnc(NCCCNS(=O)(=O)c3ccccc3)c2)c1	4.38 µM	> 100 µM	0.885 µM	> 100 µM	3.51 µM	> 100 µM	3.23 µM	> 100 µM	3.12 µM	> 100 µM	2.59 µM	9.73 µM	2.92 µM	> 100 µM	2.99 µM	> 100 µM	4.55 µM	> 100 µM	3.36 µM	> 100 µM
COc1cc2ncnc(Oc3cccc(NC(=O)Nc4cc(C(C)(C)C(F)(F)F)on4)c3)c2cc1OC	2.29 µM and 3.28 µM	14.9 µM and > 10 µM	0.571 µM and 1.13 µM	3.41 µM and 5.29 µM	1.77 µM and 1.47 µM	10.2 µM and > 7.23 µM	0.197 µM and 0.215 µM	6.9 µM and > 10 µM	0.319 µM and 0.421 µM	1.54 µM and 1.81 µM	0.0645 µM and 0.0851 µM	0.929 µM and 1.17 µM	1.13 µM and 1.67 µM	33.7 µM and > 10 µM	1.28 µM and 1.43 µM	11.7 µM and > 10 µM	2.98 µM and 4.09 µM	14.1 µM and > 10 µM	0.105 µM and 0.18 µM	1.47 µM and 1.91 µM
C[C@@H]1CCc2ncc(F)cc2[C@H]2CCCN2c2ccn3ncc(c3n2)C(=O)N1	> 100 µM	> 100 µM	47.8 µM	> 100 µM	24.5 µM	> 100 µM	68.3 µM	> 100 µM	33.1 µM	> 100 µM	> 100 µM	> 100 µM	28.3 µM	> 100 µM	> 100 µM	> 100 µM	> 100 µM	> 100 µM	> 100 µM	> 100 µM
CCCCCC[C@H]1C(=O)O[C@H](C)[C@H](NC(=O)c2cccc(NC=O)c2OC)C(=O)O[C@@H](C)[C@@H]1OC(=O)CCC (tested in a mixture with another compound)	14.9 µM	38.2 µM	–	–	13.1 µM	38.6 µM	5.98 µM	45.6 µM	8.67 µM	23.8 µM	15.3 µM	41.2 µM	14.7 µM	39.4 µM	9.53 µM	49.2 µM	8.2 µM	21.5 µM	16 µM	38.3 µM
Cc1ccc(OC(=O)N2C/C(=C\c3ccccc3)C(=O)/C(=C/c3ccccc3)C2)cc1	–	> 37 µM	–	> 100 µM	–	76.5 µM	–	35.6 µM	–	9.71 µM	–	> 100 µM	–	> 100 µM	–	87.9 µM	–	38.6 µM	–	21.6 µM
O=[N+]([O-])/C=C/c1ccc(Cl)cc1[N+](=O)[O-]	1.85 µM	3.41 µM	13.2 µM	27.5 µM	8.16 µM	> 100 µM	–	–	–	–	4.15 µM	16.7 µM	2.43 µM	6.96 µM	2.86 µM	10.6 µM	1.95 µM	3.67 µM	4.42 µM	16.5 µM
COc1cc(N(C)C)c(OC)cc1C=C1C=CC=C1	–	> 100 µM	–	> 100 µM	–	> 100 µM	–	> 100 µM	–	–	–	> 100 µM	–	> 100 µM	–	> 100 µM	–	> 100 µM	–	> 100 µM
CCCCCCCCCCCCCCCC[n+]1ccccc1	0.339 µM and 0.363 µM	1.43 µM and 1.68 µM	0.21 µM and 0.335 µM	0.753 µM and 1.4 µM	1.46 µM and 1.67 µM	4.64 µM and 4.84 µM	0.199 µM and 0.25 µM	0.765 µM and 1.26 µM	0.242 µM	1.09 µM	–	–	–	–	0.295 µM	1.43 µM	0.326 µM and 0.535 µM	1.36 µM and 1.92 µM	0.28 µM	1.04 µM
COc1ccc(-c2c(N)noc2-c2cc(OC)c3c(c2)OCCO3)cc1	0.0173 µM	0.902 µM	0.12 µM	> 40 µM	< 0.0106 µM	> 100 µM	< 0.01 µM	0.823 µM	0.0451 µM	24 µM	23.6 µM	> 100 µM	–	–	< 0.014 µM	–	< 0.0119 µM	–	< 0.01 µM	0.048 µM
COCC(C(=O)OC1C/C=C/C=C/C(=O)OC(C(C)C(O)C(C)CCC(OC(=O)C(C)N(C)C)C(C)C(OC(C)=O)C(C)/C=C/N(C)C=O)C/C=C/C(OC)CC(C)C/C=C(\C)C(OC)CCC(C)C(O)C1C)N(C)C (stereo not drawn)	< 0.0001 µM	0.237 µM	0.00145 µM	0.024 µM	< 0.0001 µM	< 0.0001 µM	–	–	< 0.0001 µM	0.00377 µM	< 0.0001 µM	0.0225 µM	–	–	< 0.0001 µM	> 0.666 µM	< 0.0001 µM	0.154 µM	< 0.0001 µM	0.00697 µM
N#[N+]c1ccc(Nc2ccccc2)cc1	> 50 µg/mL	> 50 µg/mL	–	–	> 50 µg/mL	> 50 µg/mL	> 50 µg/mL	> 50 µg/mL	> 50 µg/mL	> 50 µg/mL	> 50 µg/mL	> 50 µg/mL	> 50 µg/mL	> 50 µg/mL	> 50 µg/mL	> 50 µg/mL	> 50 µg/mL	> 50 µg/mL	> 50 µg/mL	> 50 µg/mL
OCCN(CO)CO	–	> 100 µM	–	> 100 µM	–	> 100 µM	–	> 100 µM	–	–	–	> 100 µM	–	> 100 µM	–	> 100 µM	–	> 100 µM	–	> 100 µM
O=C1Nc2ccc3c(c2/C1=C\c1cc2c(cc1Br)OCO2)OCO3	1.65 µM	> 100 µM	1.16 µM	4.37 µM	0.376 µM	2.11 µM	–	–	0.652 µM	4.57 µM	0.423 µM	4.16 µM	1.38 µM	5.35 µM	0.857 µM	7.42 µM	0.422 µM	1.68 µM	0.341 µM	5.76 µM
CC[C@H]1OC(=O)[C@H](C)[C@@H](O[C@H]2C[C@@](C)(OC)[C@@H](O)[C@H](C)O2)[C@H](C)[C@@H](O[C@@H]2O[C@H](C)C[C@H](N(C)C)[C@H]2O)[C@](C)(OC)C/C(C)=C2/O[C@@]1(C)C=C2C	1.14 µM	2.53 µM	1.57 µM	3.82 µM	1.68 µM	3.62 µM	1.83 µM	4.14 µM	1.61 µM	3.08 µM	1.58 µM	2.97 µM	2.12 µM	4.42 µM	1.96 µM	3.63 µM	1.75 µM	3.54 µM	–	–
CSC1=Nc2c(c(C)c(-c3ccccc3)n2COC(CO)CO)C2=NC(=O)CC(C)N12 (stereo not drawn)	> 100 µM	> 100 µM	> 100 µM	> 100 µM	> 100 µM	> 100 µM	> 100 µM	> 100 µM	> 100 µM	> 100 µM	> 100 µM	> 100 µM	> 100 µM	> 100 µM	> 100 µM	> 100 µM	> 100 µM	> 100 µM	–	–
COc1ccc(/C=C/C(=O)c2cc3c(N)c(C(=O)Nc4ccc(OC)cc4)sc3nc2C)cc1	0.174 µM	–	0.757 µM	> 50 µM	0.211 µM	> 11.8 µM	0.404 µM	> 28.4 µM	1.06 µM	11.3 µM	–	–	0.0872 µM	–	0.181 µM	–	1.65 µM	> 30.9 µM	0.19 µM	–
CCOc1ccc2cc(-c3nn(CC4CCNCC4)c4ncnc(N)c34)ccc2c1	17.1 µM	31.5 µM	4.96 µM	24.9 µM	10.2 µM	43.4 µM	10.9 µM	32 µM	26.8 µM	> 100 µM	–	–	10 µM	33.4 µM	13.4 µM	31.9 µM	13.7 µM	29.5 µM	14.1 µM	29.3 µM
